US7884109B2, “Purine and imidazopyridine derivatives for immunosuppression” (Wyeth LLC, priority 2005, dated 2011)

Target: T1, Human Jak3 (Homo sapiens, UniProt P52333)
T1 construct: A fragment encoding the catalytic domain of Jak3 (508aa to 1124aa) was ligated with GST at 5′ end; made in house; host or cells: Sf9 insect cells (baculovirus, pFastBac 1)
T1 sequence (P52333 508-1124): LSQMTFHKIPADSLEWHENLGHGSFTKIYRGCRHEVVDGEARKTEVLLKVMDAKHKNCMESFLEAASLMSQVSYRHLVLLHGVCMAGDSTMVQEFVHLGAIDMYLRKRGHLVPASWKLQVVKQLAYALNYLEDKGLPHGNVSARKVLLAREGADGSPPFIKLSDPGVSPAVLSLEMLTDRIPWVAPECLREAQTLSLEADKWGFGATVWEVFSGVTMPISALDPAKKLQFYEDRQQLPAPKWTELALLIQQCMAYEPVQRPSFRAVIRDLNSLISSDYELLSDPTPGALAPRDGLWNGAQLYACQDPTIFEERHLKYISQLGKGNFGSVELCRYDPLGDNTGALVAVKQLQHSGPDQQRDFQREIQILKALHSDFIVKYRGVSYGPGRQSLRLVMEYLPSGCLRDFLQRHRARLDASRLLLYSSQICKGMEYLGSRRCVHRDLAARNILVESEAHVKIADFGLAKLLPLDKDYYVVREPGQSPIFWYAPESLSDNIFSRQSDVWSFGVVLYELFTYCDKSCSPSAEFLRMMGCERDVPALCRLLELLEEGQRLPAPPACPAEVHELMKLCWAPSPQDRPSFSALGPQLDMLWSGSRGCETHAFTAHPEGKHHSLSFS
Assay: Jak3 Kinase Assay (HTRF, GST-Jak3 catalytic domain)
Assay type: biochemical
Details: (R) and (S) enantiomer pair
Experimental: Human Jak3 cDNA was amplified by PCR. A fragment encoding the catalytic domain of Jak3 (508aa to 1124aa) was ligated with GST at 5′ end. This fused GST-Jak3 DNA fragment was cloned into the EcoRI site of the donor plasmid pFastBac 1 (Life Technologies #10359-016). The transformation, transposition, and transfection of insect cells (Sf9) were performed according to the manufacture's instructions. The cell lysate containing recombinant GST-Jak3 was used in the kinase assay. Anti-GST antibody (10 μg/ml, Sigma #G1417) was coated onto a 384-well plate at 4° C. overnight. Cell lysate containing GST-Jak3 (1:100 dilution) was added to the anti-GST coated plates, and GST-Jak3 was captured by immobilized anti-GST antibody. Testing compounds and substrate mix (50 mM HEPES, pH 7, 0.5 mM Na3VO4, 25 mM MgCl2, 1 mM DTT, 0.005% BSA, 1 μM ATP, and 4.5 μg/ml biotinyl poly-Glu,Ala,Tyr) were added to the plate to initiate the reaction. After a 60-min incubation, the reaction was stopped by 4 mM EDTA, and phosphorylation of biotinyl poly-Glu,Ala,Tyr was detected using 17 μg/ml Cy5-streptavidin (Amersham, #PA92005) and 2.7 μg/ml Europium-conjugated anti-phosphotyrosine antibody (PerkinElmer #AD0069) using homogeneous time-resolved fluorescence (HTRF) technology.

`O=c1[nH]c2cnc(-n3cnc4ccccc43)nc2n1[C@@H]1CCOc2c(F)cc(F)cc21` and `O=c1[nH]c2cnc(-n3cnc4ccccc43)nc2n1[C@H]1CCOc2c(F)cc(F)cc21` cannot be ordered by IC50: < 1 µM for the first, < 1 µM for the second.

Same assay, conditions: (R) versus (S) enantiomer

For `O=c1[nH]c2cnc(-n3cnc4ccccc43)nc2n1[C@@H]1CCOc2c(F)cc(F)cc21`, the “Jak3 potency relative to the other enantiomer” value was “more potent than its corresponding (S) enantiomer”.

Tested on: IL-2-induced IFN-γ production
Assay: IL-2-Induced IFN-γ Production in the Mouse
Assay type: in vivo
Details: po, 1 h, 30 mg/kg by gavage one hour before IL-2, serum IFN-γ, female BALB/c mice, read-out: inhibition of IL-2-induced IFN-gamma production
Experimental: Administration of IL-2 leads to an increase in serum IFN-γ in the mouse due to NK secretion of the cytokine (Thornton S, Kuhn K A, Finkelman F D and Hirsch R. NK cells secrete high levels of IFN-γ in response to in vivo administration of IL-2. Eur J Immunol 2001 31:3355-3360). The experiment was carried out essentially according to the protocol in Thornton et al. and the test compounds were administered in order to determine the level of inhibition attained. In summary, female BALB/c mice were fasted for 12-18 hours before a study but had free access to water at all times. Test compounds were administered by gavage one hour before intraperitoneal injection of IL-2 and capture antibody. At termination of the studies, the mice were sacrificed by carbon dioxide inhalation, terminal blood samples were collected by cardiac puncture and serum was generated. Serum was stored frozen until it was assayed for IFN-γ, as described by the kit manufacturer (BD Pharmingen™, San Diego, Calif.).

`C[C@@H]1CCN(C(=O)CC#N)C[C@@H]1N(C)c1ncnc2[nH]ccc12` [CP690550, reference compound] and `O=C1CCC(n2c(=O)[nH]c3cnc(-n4cnc5ccccc54)nc32)c2ccccc21` (stereo not shown) [Example 135] cannot be ordered by inhibition at 30 mg/kg: 96% for the first, > 40% for the second.

`O=c1[nH]c2cnc(-n3cnc4ccccc43)nc2n1[C@@H]1CCOc2c(F)cccc21` [Example 114] and `O=c1[nH]c2cnc(-n3cnc4ccc(F)cc43)nc2n1C1CCOc2c(F)cccc21` (stereo not shown) [Example 142] cannot be ordered by inhibition at 30 mg/kg: > 40% for the first, > 40% for the second.

`C[C@H](c1cccnc1)n1c(=O)[nH]c2cnc(-n3cnc4ccccc43)nc21` [Example 120] and `O=c1[nH]c2cnc(-n3cnc4ccccc43)nc2n1C1CCOc2c(F)ccc(F)c21` (stereo not shown) [Example 162] cannot be ordered by inhibition at 30 mg/kg: > 40% for the first, > 40% for the second.

For `O=c1[nH]c2cnc(-n3cnc4ccccc43)nc2n1C1CCOc2c(F)cc(F)cc21` (stereo not shown) [Example 151], the inhibition at 30 mg/kg was > 40%.
